Laboratory results as given in PMC10878344 (Journal of Enzyme Inhibition and Medicinal Chemistry, 2024).
“Also recorded” adds a separate entry of the source.

Assays:
[1] = test system: LPS-induced NO production of mouse microglia cells (BV-2); test: LPS-induced NO production in BV-2 microglia; assay type: cell-based; conditions: for NO production: 10 μM compound, LPS-induced BV-2 cells; for inhibition at 10 µM: Mus musculus, BV-2, read-out: NO inhibition
[2] = test system: BV-2 cells; test: BV-2 cell viability; conditions: 10 μM, MTT, 24 h
[3] = PAMPA-BBB reported values; ref [35],[36]; cited from earlier work
[4] = PAMPA-BBB in vitro blood-brain barrier permeation assay; conditions: for Papp at 10 h, 25 μg/mL: pH 7.4; for CNS (±): PAMPA-BBB classification from Pe
[5] = molecular target: eeAChE (Electrophorus electricus, UniProt O42275); test: eeAChE inhibition, modified Ellman's method; assay type: biochemical, electric eel
Sequence of eeAChE (O42275 24-633): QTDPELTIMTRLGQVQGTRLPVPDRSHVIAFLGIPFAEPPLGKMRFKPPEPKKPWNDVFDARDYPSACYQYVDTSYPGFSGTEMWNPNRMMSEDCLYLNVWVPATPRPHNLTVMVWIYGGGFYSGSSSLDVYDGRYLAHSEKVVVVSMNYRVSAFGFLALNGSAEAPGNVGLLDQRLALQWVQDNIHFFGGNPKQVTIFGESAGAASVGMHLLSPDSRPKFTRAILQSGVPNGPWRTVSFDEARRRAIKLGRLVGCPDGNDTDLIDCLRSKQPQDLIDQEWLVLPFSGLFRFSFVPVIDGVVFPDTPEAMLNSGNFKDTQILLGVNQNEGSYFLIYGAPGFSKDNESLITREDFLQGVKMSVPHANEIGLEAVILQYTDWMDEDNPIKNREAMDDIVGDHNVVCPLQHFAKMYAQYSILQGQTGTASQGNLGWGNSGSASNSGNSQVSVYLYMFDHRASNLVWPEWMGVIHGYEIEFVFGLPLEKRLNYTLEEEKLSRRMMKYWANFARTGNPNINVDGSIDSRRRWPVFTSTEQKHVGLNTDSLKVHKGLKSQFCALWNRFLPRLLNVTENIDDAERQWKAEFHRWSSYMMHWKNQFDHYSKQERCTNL

[6] = molecular target: T1, eqBuChE (Equus caballus, UniProt P81908); test: eqBuChE inhibition, modified Ellman's method; assay type: biochemical, equine
T1 sequence (P81908 whole entry): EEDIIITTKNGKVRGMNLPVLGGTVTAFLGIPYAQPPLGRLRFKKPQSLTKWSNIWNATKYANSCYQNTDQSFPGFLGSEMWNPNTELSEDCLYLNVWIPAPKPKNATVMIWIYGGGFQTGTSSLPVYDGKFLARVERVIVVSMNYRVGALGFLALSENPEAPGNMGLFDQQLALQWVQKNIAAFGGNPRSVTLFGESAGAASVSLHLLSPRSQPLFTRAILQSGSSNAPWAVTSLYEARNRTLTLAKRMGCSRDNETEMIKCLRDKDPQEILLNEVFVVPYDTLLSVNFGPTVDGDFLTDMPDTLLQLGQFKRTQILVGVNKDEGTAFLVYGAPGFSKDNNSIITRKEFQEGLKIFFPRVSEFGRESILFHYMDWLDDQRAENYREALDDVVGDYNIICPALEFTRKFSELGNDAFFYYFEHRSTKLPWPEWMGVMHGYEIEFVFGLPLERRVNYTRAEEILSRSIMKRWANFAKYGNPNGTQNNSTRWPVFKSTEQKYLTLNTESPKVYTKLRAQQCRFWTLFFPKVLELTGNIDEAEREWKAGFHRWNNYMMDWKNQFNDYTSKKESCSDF

[7] = molecular target: huBuChE (Homo sapiens, UniProt P06276); test: huBuChE inhibition, modified Ellman's method; assay type: biochemical
Sequence of huBuChE (P06276 29-602): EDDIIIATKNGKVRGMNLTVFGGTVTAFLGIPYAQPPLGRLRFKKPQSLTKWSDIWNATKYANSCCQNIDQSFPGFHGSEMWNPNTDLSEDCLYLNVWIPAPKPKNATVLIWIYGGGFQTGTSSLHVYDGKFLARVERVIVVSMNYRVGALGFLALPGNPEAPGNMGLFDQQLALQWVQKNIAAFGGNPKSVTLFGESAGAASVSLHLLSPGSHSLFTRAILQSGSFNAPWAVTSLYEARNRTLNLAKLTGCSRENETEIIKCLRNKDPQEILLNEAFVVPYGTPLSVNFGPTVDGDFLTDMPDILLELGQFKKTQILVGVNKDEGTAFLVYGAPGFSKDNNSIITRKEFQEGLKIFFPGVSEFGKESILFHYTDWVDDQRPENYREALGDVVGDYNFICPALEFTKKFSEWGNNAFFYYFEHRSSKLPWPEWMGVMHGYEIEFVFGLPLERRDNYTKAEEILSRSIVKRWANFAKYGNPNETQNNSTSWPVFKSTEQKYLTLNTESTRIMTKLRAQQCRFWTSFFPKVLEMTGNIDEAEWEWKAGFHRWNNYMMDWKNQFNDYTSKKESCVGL

[8] = molecular target: T1, eqBuChE; test: Kinetics of BuChE inhibition; assay type: biochemical, equine
[9] = test system: scopolamine-induced cognitive impairment mouse model; test: Morris water maze test in scopolamine-induced cognitive impairment mouse model; assay type: in vivo, C57BL/6J mice; conditions: scopolamine 5 mg/kg i.p.; for escape latency to the platform: fifth day of training trials; for number of crossing the platform: last day without platform
[10] = Acute toxicity test; conditions: both, ICR, mouse, in vivo, po, 1000 mg/kg
[11] = test system: ICR mice; test: Acute toxicity test; conditions: ICR mice

SMILES | NO production [1] | IC50 [5] | IC50 [6] | IC50 [7] | further results
C[C@]12CCC(=O)C=C1CC[C@@H]1[C@@H]2[C@@H](O)C[C@@]2(C)[C@H]1CC[C@]2(O)C(=O)CO [hydrocortisone, Hydrocortisone, reference compound] | 70.25% |  |  |  | cell viability compared to the control group [2]: no significant differences
Cn1c(=O)c2[nH]cnc2n(C)c1=O [Theophylline] |  |  |  |  | Pe(ref.) [3]: 0.12 ± 0.01 ×10^−6 cm/s
CN1C(C(=O)Nc2ccccn2)=C(O)c2sccc2S1(=O)=O [Tenoxicam] |  |  |  |  | Pe(ref.) [3]: 1e-07 cm/s; Papp at 10 h, 25 μg/mL ([4]; PAMPA): 0.35 ± 0.16 ×10⁻⁶ cm/s; CNS (±) [4]: CNS - (CNS -: (low BBB permeability), Pe (×10^−6 cm/s) < 2.03)
Cc1cc(=O)c(OCc2ccccc2)c(/C=C/c2cccc(OC(=O)N3CCOCC3)c2)o1 [Compound 7h, (E)-3–(2-(3-(benzyloxy)-6-methyl-4-oxo-4H-pyran-2-yl)vinyl)phenyl morpholine-4-carboxylate] |  | > 20000 nM | 72.6 ± 9.39 nM | > 10000 nM | 
CCN(CC)C(=O)Oc1cccc(/C=C/c2oc(C)cc(=O)c2OCc2ccccc2)c1 [Compound 7c, (E)-3–(2-(3-(benzyloxy)-6-methyl-4-oxo-4H-pyran-2-yl)vinyl)phenyl diethylcarbamate] |  | > 20000 nM | 652 ± 44.5 nM | > 10000 nM | 
O=C(Oc1cccc(/C=C/c2occc(=O)c2OCc2ccccc2)c1)N1CCCCC1 [Compound 7l, (E)-3–(2-(3-(benzyloxy)-4-oxo-4H-pyran-2-yl)vinyl)phenyl piperidine-1-carboxylate] |  | > 20000 nM | 8.1 ± 2.75 nM | 6.93 ± 1.57 nM | 
Cc1cc(=O)c(OCc2ccccc2)c(/C=C/c2cccc(OC(=O)N3CCC(Cc4ccccc4)CC3)c2)o1 [Compound 7i, (E)-3–(2-(3-(benzyloxy)-6-methyl-4-oxo-4H-pyran-2-yl)vinyl)phenyl 4-benzylpiperidine-1-carboxylate] |  | > 20000 nM | 75.2 ± 11.9 nM | 374 ± 6.45 nM | 
Cc1cc(=O)c(OCc2ccccc2)c(-c2ccc(-c3cccc(OC(=O)N4CCCCC4)c3)cc2)o1 [Compound 7r, 4′-(3-(Benzyloxy)-6-methyl-4-oxo-4H-pyran-2-yl)-[1,1′-biphenyl]-3-yl piperidine-1-carboxylate] |  | > 20000 nM | 94.3 ± 20.9 nM | 651 ± 157 nM | 
Cc1cc(=O)c(OCc2ccccc2)c(/C=C/c2cccc(OC(=O)N(C(C)C)C(C)C)c2)o1 [Compound 7d, (E)-3–(2-(3-(benzyloxy)-6-methyl-4-oxo-4H-pyran-2-yl)vinyl)phenyl diisopropylcarbamate] | 80.01% | > 20000 nM | 8530 ± 314 nM | > 10000 nM | 
Cc1cc(=O)c(OCc2ccc(-c3ccccc3)cc2)c(/C=C/c2cccc(OC(=O)N3CCCCC3)c2)o1 [Compound 7o, (E)-3–(2-(3-([1,1′-biphenyl]-4-ylmethoxy)-6-methyl-4-oxo-4H-pyran-2-yl)vinyl)phenyl piperidine-1-carboxylate] |  | > 20000 nM | 19.2 ± 1.91 nM | 37.9 ± 5.37 nM | 
Cc1cc(=O)c(OCc2ccccc2)c(-c2ccc3ccc(OC(=O)N4CCCCC4)cc3c2)o1 [Compound 7q, 7–(3-(Benzyloxy)-6-methyl-4-oxo-4H-pyran-2-yl)naphthalen-2-yl piperidine-1-carboxylate] |  | > 20000 nM | 41.7 ± 11.3 nM | 230 ± 29.9 nM | 
CCn1cc(C(=O)O)c(=O)c2cc(F)c(N3CCNCC3)cc21 [Norfloxacin] |  |  |  |  | Pe(ref.) [3]: 1e-07 cm/s; Papp at 10 h, 25 μg/mL ([4]; PAMPA): 0.18 ± 0.03 ×10⁻⁶ cm/s; CNS (±) [4]: CNS - (CNS -: (low BBB permeability), Pe (×10^−6 cm/s) < 2.03)
CN1C(C(=O)Nc2ccccn2)=C(O)c2ccccc2S1(=O)=O [Piroxicam] |  |  |  |  | Pe(ref.) [3]: 2.5e-06 cm/s; Papp at 10 h, 25 μg/mL ([4]; PAMPA): 2.16 ± 0.04 ×10⁻⁶ cm/s; CNS (±) [4]: CNS +/-
COc1c(/C=C/c2cccc(OC(=O)N3CCCCC3)c2)oc(C)cc1=O [Compound 7p, (E)-3-(2-(3-methoxy-6-methyl-4-oxo-4H-pyran-2-yl)vinyl)phenyl piperidine-1-carboxylate] | 71.18% | > 20000 nM | 4.68 ± 1.39 nM | 9.12 ± 0.57 nM | fold increase in inhibiting eqBuChE ([6]; relative to compound 7g): 3 fold; fold increase in inhibiting huBuChE ([7]; relative to compound 7g): 4 fold; inhibition at 10 µM [1]: 28.8%; Ki [8]: 3.15 nM; Kib (inhibition constant for the enzyme-substrate complex) ([8]; Cornish-Bowden plot): 3.84 nM; type of BuChE inhibition ([8]; Dixon and Cornish-Bowden plots): mix-type; also recorded: mixed-type inhibition; escape latency to the platform ([9]; 1 mg/kg oral once daily): 30.24 s; number of crossing the platform ([9]; 1 mg/kg oral once daily): 3.3 times; escape latency to the platform ([9]; 5 mg/kg oral once daily): 29.12 s; number of crossing the platform ([9]; 5 mg/kg oral once daily): 3.5 times; LD50 at 14 d [10]: > 1000 mg/kg; abnormal behaviours or deaths after administration ([11]; 1000 mg/kg intragastric single dose, 14 d): no abnormal behaviours or deaths; pathological changes in heart, liver, spleen and brain (HE staining) ([11]; 1000 mg/kg, after 14 d, compared with control group): did not observe obvious pathological changes; BBB permeability in the PAMPA-BBB assay (in words) ([4]; PAMPA): high BBB permeability; Papp at 10 h, 25 μg/mL ([4]; PAMPA): 5.7 ± 0.43 ×10⁻⁶ cm/s; CNS (±) [4]: CNS + (CNS +: (high BBB permeability), Pe (×10^−6 cm/s) > 3.95)
Cc1cc(=O)c(OCc2ccccc2)c(/C=C/c2cccc(OC(=O)N(C)C)c2)o1 [Compound 7a, (E)-3–(2-(3-(benzyloxy)-6-methyl-4-oxo-4H-pyran-2-yl)vinyl)phenyl dimethylcarbamate] | 90.31% | > 20000 nM | 24.6 ± 6.66 nM | 99.4 ± 20.6 nM | 
Cc1cc(=O)c(OCc2ccccc2)c(/C=C/c2cccc(OC(=O)N3CCN(Cc4ccccc4)CC3)c2)o1 [Compound 7j, (E)-3–(2-(3-(benzyloxy)-6-methyl-4-oxo-4H-pyran-2-yl)vinyl)phenyl 4-benzylpiperazine-1-carboxylate] |  | > 20000 nM | 31.8 ± 6.92 nM | 733 ± 59.8 nM | 
Cc1cc(=O)c(OCc2ccccc2)c(CCc2cccc(OC(=O)N3CCCCC3)c2)o1 [Compound 7s, 3–(2-(3-(Benzyloxy)-6-methyl-4-oxo-4H-pyran-2-yl)ethyl)phenyl piperidine-1-carboxylate] | 77.77% | > 20000 nM | 12.3 ± 3.12 nM | 11 ± 1.7 nM | 
O=C(Oc1cccc(/C=C/c2oc(CO)cc(=O)c2OCc2ccccc2)c1)N1CCCCC1 [Compound 7m, (E)-3–(2-(3-(benzyloxy)-6-(hydroxymethyl)-4-oxo-4H-pyran-2-yl)vinyl)phenyl piperidine-1-carboxylate] | 76.97% | > 20000 nM | 5.22 ± 1.72 nM | 16.5 ± 5.44 nM | 
Cc1cc(=O)c(OCc2ccc3ccccc3c2)c(/C=C/c2cccc(OC(=O)N3CCCCC3)c2)o1 [Compound 7n, (E)-3–(2-(6-methyl-3-(naphthalen-2-ylmethoxy)-4-oxo-4H-pyran-2-yl)vinyl)phenyl piperidine-1-carboxylate] |  | > 20000 nM | 18.9 ± 5.98 nM | 39.4 ± 4.2 nM | 
Cc1cc(=O)c(OCc2ccccc2)c(/C=C/c2cccc(OC(=O)N3CCCCC3)c2)o1 [Compound 7g, (E)-3–(2-(3-(benzyloxy)-6-methyl-4-oxo-4H-pyran-2-yl)vinyl)phenyl piperidine-1-carboxylate] | 90.09% | > 20000 nM | 15.3 ± 0.75 nM | 38.7 ± 2.08 nM | 
Cc1cc(=O)c(OCc2ccccc2)c(/C=C/c2cccc(OC(=O)N(c3ccccc3)c3ccccc3)c2)o1 [Compound 7e, (E)-3–(2-(3-(benzyloxy)-6-methyl-4-oxo-4H-pyran-2-yl)vinyl)phenyl diphenylcarbamate] | 106.16% | > 20000 nM | > 10000 nM | > 10000 nM | 
Cc1cc(=O)c(OCc2ccccc2)c(/C=C/c2cccc(OCC(=O)N3CCCCC3)c2)o1 [Compound 7k, (E)-3-(benzyloxy)-6-methyl-2–(3–(2-oxo-2-(piperidin-1-yl)ethoxy)styryl)-4H-pyran-4-one] | 64.59% | > 20000 nM | 1430 ± 131 nM | 486 ± 46.2 nM | inhibition at 10 µM [1]: 35.4%
CCN(C)C(=O)Oc1cccc([C@H](C)N(C)C)c1 [Rivastigmine, reference compound] |  |  |  |  | escape latency to the platform ([9]; 1 mg/kg oral once daily): 31.15 s; number of crossing the platform ([9]; 1 mg/kg oral once daily): 3.0 times
Cc1cc(=O)c(OCc2ccccc2)c(/C=C/c2cccc(OC(=O)N3CCCC3)c2)o1 [Compound 7f, (E)-3–(2-(3-(benzyloxy)-6-methyl-4-oxo-4H-pyran-2-yl)vinyl)phenyl pyrrolidine-1-carboxylate] |  | > 20000 nM | 31.4 ± 5.97 nM | 156 ± 36 nM | 
CCN(C)C(=O)Oc1cccc(/C=C/c2oc(C)cc(=O)c2OCc2ccccc2)c1 [Compound 7b, (E)-3–(2-(3-(benzyloxy)-6-methyl-4-oxo-4H-pyran-2-yl)vinyl)phenyl ethyl(methyl)carbamate] |  | > 20000 nM | 157 ± 13.3 nM | 631 ± 155 nM | 
